Measurements taken from patent US12122761B2, “2-azaspiro[3.4]octane derivatives as M4 agonists” (NOVARTIS AG, priority 2019, dated 2024).
pEC50: −log10 of the molar value.

Key:
[1] = target: T1, human cloned CHRM3 receptor (M3_CHO cells) (Homo sapiens, UniProt P20309); test: CHRM3 Ca++ Flux Assay (agonist mode, FDSS 7000EX); assay type: cell-based; settings: for Emax: Percent Activity measured to EC100 of Carbachol, read-out: M3 FDSS PA; for pEC50: agonist mode, geometric mean if tested more than once, read-out: M3 FDSS EC50
T1 construct: expressed in transfected cells; host or cells: CHO-K1
Method in brief: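 CHO-K1 cells stably expressing human M3 or M5 receptor were dye-loaded for at least 1 h in HBSS with 20 mM HEPES and 2.5 mM probenecid, then given 11-point compound doses in triplicate.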

[2] = target: T2, human cloned CHRM2 receptor (M2_CHO cells) (Homo sapiens, UniProt P08172); test: CHRM2 Ca++ Flux Assay (agonist mode, FDSS 7000EX); assay type: cell-based; settings: for Emax: Percent Activity measured to EC100 of Carbachol, read-out: M2 FDSS PA; for pEC50: agonist mode, geometric mean if tested more than once, read-out: M2 FDSS EC50
T2 construct: expressed in transfected cells; host or cells: CHO-K1
T2 sequence (P08172 1-466): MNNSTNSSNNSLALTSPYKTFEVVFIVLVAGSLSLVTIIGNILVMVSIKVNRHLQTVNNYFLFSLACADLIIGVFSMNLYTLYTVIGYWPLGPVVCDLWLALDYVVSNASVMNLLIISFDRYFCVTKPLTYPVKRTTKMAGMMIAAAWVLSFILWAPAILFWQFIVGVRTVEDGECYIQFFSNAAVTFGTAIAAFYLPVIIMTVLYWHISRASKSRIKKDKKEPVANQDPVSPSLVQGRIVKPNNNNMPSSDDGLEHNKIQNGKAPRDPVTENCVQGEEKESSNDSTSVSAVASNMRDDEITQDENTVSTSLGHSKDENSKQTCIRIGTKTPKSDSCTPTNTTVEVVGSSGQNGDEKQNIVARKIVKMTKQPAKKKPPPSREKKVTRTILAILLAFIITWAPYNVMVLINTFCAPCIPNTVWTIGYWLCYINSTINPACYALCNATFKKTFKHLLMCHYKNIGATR
Method in brief: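 Response expressed as percent activity versus the Carbachol EC100, with curves fitted by four-parameter non-linear regression of triplicates. Stable M2_CHO cells were Ca++ dye-loaded and preincubated 60 min at room temperature in assay buffer containing 20 μM ATP; signal imaged for 3 minutes after compound.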

T1 sequence (P20309 whole entry): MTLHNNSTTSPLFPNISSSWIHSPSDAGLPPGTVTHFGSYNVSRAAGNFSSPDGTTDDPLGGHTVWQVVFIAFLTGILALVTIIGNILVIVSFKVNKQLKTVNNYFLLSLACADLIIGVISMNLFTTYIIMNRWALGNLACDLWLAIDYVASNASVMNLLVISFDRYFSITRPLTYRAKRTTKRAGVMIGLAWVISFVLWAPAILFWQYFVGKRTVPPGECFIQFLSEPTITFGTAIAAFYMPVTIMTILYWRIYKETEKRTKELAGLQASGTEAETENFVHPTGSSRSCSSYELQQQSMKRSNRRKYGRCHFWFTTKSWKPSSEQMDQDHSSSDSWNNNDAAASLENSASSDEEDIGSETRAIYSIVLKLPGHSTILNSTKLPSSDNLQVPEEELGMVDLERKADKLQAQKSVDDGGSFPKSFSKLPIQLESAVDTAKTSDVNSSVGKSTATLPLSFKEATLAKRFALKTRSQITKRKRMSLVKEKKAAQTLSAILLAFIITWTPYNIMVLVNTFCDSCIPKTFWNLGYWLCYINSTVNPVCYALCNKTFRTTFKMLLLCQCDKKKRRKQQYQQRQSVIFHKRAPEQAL

Row | Compound | Emax [1] [%] | pEC50 [1] | Emax [2] [%] | pEC50 [2]
1 | Fc1ccc(C2CCOC2)c(C2CCN([C@@H]3CCC4(C3)CN(c3nnco3)C4)CC2)c1 (mixture of isomers) [Example 2J, 2-((6R)-6-(4-(5-fluoro-2-(tetrahydrofuran-3-yl)phenyl)piperidin-1-yl)-2-azaspiro[3.4]octan-2-yl)-1,3,4-oxadiazole] | 0 | < 4.60 | 37 | 7.44
2 | O=C(C1COC1)N1CC2(CC[C@H](N3CCC(c4ccccc4OC(F)(F)F)CC3)C2)C1 (single isomer, unassigned) [Example 8G] | 0 | < 4.60 | 0 | –
3 | O=C(N1CC2(CC[C@H](N3CCC(c4ccccc4C4CCOCC4)CC3)C2)C1)C1(F)CC1 (single isomer, unassigned) [Example 9M] | 0 | < 4.60 | 0 | –
4 | c1ccc(C2CCN([C@H]3CCC4(C3)CN(c3nnco3)C4)CC2)c(C2CCOCC2)c1 (single isomer, unassigned) [Example 10T] | 0 | < 4.60 | 0 | –
5 | c1ccc(C2CCN([C@@H]3CCC4(C3)CN(c3nnco3)C4)CC2)c(OC2CC3(COC3)C2)c1 [Example 1A, (R)-2-(6-(4-(2-((2-oxaspiro[3.3]heptan-6-yl)oxy)phenyl)piperidin-1-yl)-2-azaspiro[3.4]octan-2-yl)-1,3,4-oxadiazole] | 0 | < 4.60 | 0 | –
6 | c1ccc(C2CCN([C@@H]3CCC4(C3)CN(c3nnco3)C4)CC2)c(OC2COC2)c1 [Example 1D, (R)-2-(6-(4-(2-(oxetan-3-yloxy)phenyl)piperidin-1-yl)-2-azaspiro[3.4]octan-2-yl)-1,3,4-oxadiazole] | 0 | < 4.60 | 40 | 7.46
7 | c1ccc(C2CCN([C@@H]3CCC4(C3)CN(c3nnco3)C4)CC2)c(OC[C@@H]2COCCO2)c1 [Example 1E, 2-((R)-6-(4-(2-(((S)-1,4-dioxan-2-yl)methoxy)phenyl)piperidin-1-yl)-2-azaspiro[3.4]octan-2-yl)-1,3,4-oxadiazole] | 0 | < 4.60 | 14 | 7.68
8 | CC(C)(O)CCOc1ccccc1C1CCN([C@@H]2CCC3(C2)CN(c2nnco2)C3)CC1 [Example 1F] | 0 | < 4.60 | 0 | –
9 | c1ccc(C2CCN([C@@H]3CCC4(C3)CN(c3nncs3)C4)CC2)c(OCC2COC2)c1 [Example 1G, (R)-2-(6-(4-(2-(oxetan-3-ylmethoxy)phenyl)piperidin-1-yl)-2-azaspiro[3.4]octan-2-yl)-1,3,4-thiadiazole] | 0 | < 4.60 | 38 | 7.12
10 | FC1(COc2ccccc2C2CCN([C@@H]3CCC4(C3)CN(c3nncs3)C4)CC2)COC1 [Example 1H, (R)-2-(6-(4-(2-((3-fluorooxetan-3-yl)methoxy)phenyl)piperidin-1-yl)-2-azaspiro[3.4]octan-2-yl)-1,3,4-thiadiazole] | 0 | < 4.60 | 41 | 7.52
11 | c1ccc(C2CCN([C@@H]3CCC4(C3)CN(c3nncs3)C4)CC2)c(OCC2CCOCC2)c1 [Example 1I, (R)-2-(6-(4-(2-((tetrahydro-2H-pyran-4-yl)methoxy)phenyl)piperidin-1-yl)-2-azaspiro[3.4]octan-2-yl)-1,3,4-thiadiazole] | 0 | < 4.60 | 28 | 7.04
12 | FC1(COc2ccccc2C2CCN([C@@H]3CCC4(C3)CN(c3nncs3)C4)CC2)CCOCC1 [Example 1J, (R)-2-(6-(4-(2-((4-fluorotetrahydro-2H-pyran-4-yl)methoxy)phenyl)piperidin-1-yl)-2-azaspiro[3.4]octan-2-yl)-1,3,4-thiadiazole] | 0 | < 4.60 | 72 | 7.29
13 | c1ccc(C2CCN([C@@H]3CCC4(C3)CN(c3cncnc3)C4)CC2)c(OC2COC2)c1 [Example 1K, (R)-6-(4-(2-(oxetan-3-yloxy)phenyl)piperidin-1-yl)-2-(pyrimidin-5-yl)-2-azaspiro[3.4]octane] | 0 | < 4.60 | 19 | 7.54
14 | c1ccc(C2CCN([C@@H]3CCC4(C3)CN(c3cncnc3)C4)CC2)c(OC2CCOCC2)c1 [Example 1L, (R)-2-(pyrimidin-5-yl)-6-(4-(2-((tetrahydro-2H-pyran-4-yl)oxy)phenyl)piperidin-1-yl)-2-azaspiro[3.4]octane] | 0 | < 4.60 | 28 | 6.67
15 | c1ccc(C2CCN([C@@H]3CCC4(C3)CN(c3cncnc3)C4)CC2)c(OCC2CCOCC2)c1 [Example 1M, (R)-2-(pyrimidin-5-yl)-6-(4-(2-((tetrahydro-2H-pyran-4-yl)methoxy)phenyl)piperidin-1-yl)-2-azaspiro[3.4]octane] | 0 | < 4.60 | 30 | 6.40
16 | c1ccc(C2CCN([C@@H]3CCC4(C3)CN(c3cncnc3)C4)CC2)c(OCC2COC2)c1 [Example 1N, (R)-6-(4-(2-(oxetan-3-ylmethoxy)phenyl)piperidin-1-yl)-2-(pyrimidin-5-yl)-2-azaspiro[3.4]octane] | 0 | < 4.60 | 10 | 8.15
17 | c1ccc(C2CCN([C@@H]3CCC4(C3)CN(c3cncnc3)C4)CC2)c(OC2CC3(COC3)C2)c1 [Example 1O, (R)-6-(4-(2-((2-oxaspiro[3.3]heptan-6-yl)oxy)phenyl)piperidin-1-yl)-2-(pyrimidin-5-yl)-2-azaspiro[3.4]octane] | 0 | < 4.60 | 0 | –
18 | c1ccc(C2CCN([C@@H]3CCC4(C3)CN(c3cncnc3)C4)CC2)c(O[C@@H]2CCOC2)c1 [Example 1P, (R)-2-(pyrimidin-5-yl)-6-(4-(2-(((R)-tetrahydrofuran-3-yl)oxy)phenyl)piperidin-1-yl)-2-azaspiro[3.4]octane] | 0 | < 4.60 | 7 | 8.15
19 | CC(C)(O)COc1ccccc1C1CCN([C@@H]2CCC3(C2)CN(c2nnco2)C3)CC1 [Example 2A, (R)-1-(2-(1-(2-(1,3,4-oxadiazol-2-yl)-2-azaspiro[3.4]octan-6-yl)piperidin-4-yl)phenoxy)-2-methylpropan-2-ol] | 0 | < 4.60 | 12 | 6.93
20 | c1ccc(C2CCN([C@@H]3CCC4(C3)CN(c3nnco3)C4)CC2)c(O[C@@H]2CCOC2)c1 [Example 2B, 2-((R)-6-(4-(2-(((R)-tetrahydrofuran-3-yl)oxy)phenyl)piperidin-1-yl)-2-azaspiro[3.4]octan-2-yl)-1,3,4-oxadiazole] | 0 | < 4.60 | 32 | 7.41
21 | COCCOc1ccccc1C1CCN([C@@H]2CCC3(C2)CN(c2nnco2)C3)CC1 [Example 2C] | 0 | < 4.60 | 0 | –
22 | FC1(COc2ccccc2C2CCN([C@@H]3CCC4(C3)CN(c3nnco3)C4)CC2)CCOCC1 [Example 2D, (R)-2-(6-(4-(2-((4-fluorotetrahydro-2H-pyran-4-yl)methoxy)phenyl)piperidin-1-yl)-2-azaspiro[3.4]octan-2-yl)-1,3,4-oxadiazole] | 0 | < 4.60 | 8 | 7.30
